These results are taken from patent publication US8916555B2, “3,5-diaminopyrazole kinase inhibitors” (Axikin Pharmaceuticals, Inc., priority 2012, dated 2014).

The target of the assay is T1, kinase domain protein of RC kinase (Homo sapiens, UniProt Q56UN5).
T1 sequence (Q56UN5 1061-1324 limits assumed): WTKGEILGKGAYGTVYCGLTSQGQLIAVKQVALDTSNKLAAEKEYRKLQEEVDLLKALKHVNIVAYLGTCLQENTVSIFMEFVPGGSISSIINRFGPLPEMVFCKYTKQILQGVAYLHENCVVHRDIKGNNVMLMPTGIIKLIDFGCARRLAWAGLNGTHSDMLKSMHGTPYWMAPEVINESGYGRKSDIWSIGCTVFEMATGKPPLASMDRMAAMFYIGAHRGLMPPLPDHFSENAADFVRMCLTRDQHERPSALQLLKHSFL
In words: Enzymatic assay for kinase inhibitory activity (Crebtide substrate, LANCE readout), kinase domain protein. The note with it: test compound 1 μM, ATP 1 μM, Crebtide 50 nM. Type of assay: biochemical. As for the experimental part: Solutions of a test compound, Crebtide (a substrate), a kinase, and ATP were prepared using 1×MAPK Buffer (50 mM HEPES, 1 mM EGTA, […], 10 mM MgCl2, 2 mM DTT, and 0.01% Tween 20).
To each well, the test compound (1 μL) was first added (in duplicate) to reach a final concentration of 1 μM or 1×IC50 of the compound. The kinase (5 μL) was then added to each well to reach a final concentration of […] for the kinase domain or […] for the full-length domain. Each plate included a positive and negative controls in duplicate wells. Crebtide (2.5 μL) was then added to each well in duplicate to reach a final concentration of 50 nM. If the full-length kinase was used, the plates were incubated for 45 min at room temperature before proceeding further. ATP (2.5 μL) was added to each well to reach a final concentration of 1 μM for the kinase domain and 3 μM for the full-length.
After the addition of ATP, the plates were incubated for 45 min at room temperature. During the incubation, an EDTA solution (40 mM) and anti-Crebtide ([…]) were prepared. Additionally, a detection buffer stock solution was diluted ten fold before use.
After the incubation, the anti-Crebtide (5 μL) and EDTA (5 μL) were added to each well to reach their final concentrations of […] and 10 mM, respectively. The plates were allowed to develop at room temperature for 45 min. The plates were then read at 665 nm and 615 nm using Perkin Elmer Lance machine.
The biological results of inhibition of the kinase domain protein of RC kinase are summarized in Tables 2 and 3, wherein A represents at least 50% inhibition of the RC kinase activity at 1 μM; B represents no greater than 50% but at least 20% inhibition of the RC kinase activity at 1 μM; C represents no greater than 20% but at least 5% inhibition of the RC kinase activity at 1 μM; and D represents no greater than 5% inhibition of the RC kinase activity at 1 μM.
For `NC(=O)c1c(Nc2ccc(CN3CCOCC3)cc2)n[nH]c1NCc1ccc(O)cc1` [Compound D134, 5-((4-hydroxybenzyl)amino)-3-((4-(morpholinomethyl)phenyl)amino)-1H-pyrazole-4-carboxamide], the inhibition (in general, how much of the control response was suppressed) at 1 µM was not below 50%.

As to `Cc1ccc(CNc2[nH]nc(Nc3cccc(Cl)c3)c2C#N)c(O)c1` [Compound C30], the inhibition at 1 µM is 5 to 20%.

The compound `COc1ccc(CNc2[nH]nc(Nc3cccc(Cl)c3)c2C#N)c(C)c1C` [Compound C22] returned an inhibition at 1 µM not above 5%.

`Cc1ccc(S(=O)(=O)Nc2ccc(Nc3n[nH]c(NCc4ccc(O)cc4)c3C(N)=O)cc2)cc1` [Compound D136, 5-((4-hydroxybenzyl)amino)-3-((4-(4-methylphenylsulfonamido)phenyl)amino)-1H-pyrazole-4-carboxamide] registered an inhibition at 1 µM of 20 to 50%.

`NC(=O)c1c(Nc2cccc(Cl)c2)n[nH]c1NCc1ccc(Cl)nc1` [Compound D6] showed an inhibition at 1 µM of 5 to 20%.

The compound `N#Cc1c(Nc2cccc(Cl)c2)n[nH]c1NCc1ccc(-c2ccc(Cl)cc2)o1` [Compound C12] came in with an inhibition at 1 µM not above 5%.

For `N#Cc1c(Nc2cccc(Cl)c2)n[nH]c1NCc1cccn1S(=O)(=O)c1ccccc1` [Compound C4], the inhibition at 1 µM lay in the range of 5 to 20%.

`Cn1nc(C(F)(F)F)c(CNc2[nH]nc(Nc3cccc(Cl)c3)c2C#N)c1Cl` [Compound C9] returned an inhibition at 1 µM not above 5%.

Turning to `N#Cc1c(Nc2cccc(Cl)c2)n[nH]c1NCc1nc(-c2ccccc2)[nH]c1Cl` [Compound C11], the inhibition at 1 µM is not above 5%.

Regarding `CN1CCN(c2ccc(CNc3[nH]nc(Nc4cccc(Cl)c4)c3C#N)cc2)CC1` [Compound C13], the inhibition at 1 µM is not above 5%.

For the compound `NC(=O)c1c(Nc2cccc(Cl)c2)n[nH]c1NCc1c[nH]c2c(F)c(F)c(F)c(F)c12` [Compound D22, 3-((3-chlorophenyl)amino)-5-(((4,5,6,7-tetrafluoro-1H-indol-3-yl)methyl)amino)-1H-pyrazole-4-carboxamide], the inhibition at 1 µM is not above 5%.

Take `N#Cc1c(Nc2cccc(Cl)c2)n[nH]c1NCc1ccc(OCc2ccc(F)cc2)cc1` [Compound C6]: the inhibition at 1 µM was in the range of 20 to 50%.

For `NC(=O)c1c(Nc2ccc(NC(=O)c3cccc(Cl)c3)cc2)n[nH]c1NCc1ccc(O)cc1` [Compound D130], the inhibition at 1 µM was not below 50%.

The compound `N#Cc1c(Nc2cccc(Cl)c2)n[nH]c1NCc1ccc(Oc2nccc(C(F)(F)F)n2)cc1` [Compound C1, 3-((3-chlorophenyl)amino)-5-((4-((4-(trifluoromethyl)pyrimidin-2-yl)oxy)benzyl)amino)-1H-pyrazole-4-carbonitrile] showed an inhibition at 1 µM of 5 to 20%.

`NC(=O)c1c(Nc2cccc(Cl)c2)n[nH]c1NCc1cccn1S(=O)(=O)c1ccccc1` [Compound D18, 3-((3-chlorophenyl)amino)-5-(((1-(phenylsulfonyl)-1H-pyrrol-2-yl)methyl)amino)-1H-pyrazole-4-carboxamide] gave an inhibition at 1 µM of 20 to 50%.

As for `NC(=O)c1c(Nc2cccc(Cl)c2)n[nH]c1NCc1ccc(Oc2ncccn2)cc1` [Compound D11, 3-((3-chlorophenyl)amino)-5-((4-(pyrimidin-2-yloxy)benzyl)amino)-1H-pyrazole-4-carboxamide], the “Activity (inhibition of the RC kinase activity at 1 μM)” value was “A (at least 50% inhibition of the RC kinase activity at 1 μM)”.

The compound `NC(=O)c1c(Nc2ccc(-n3cccn3)cc2)n[nH]c1NCc1ccc(O)cc1` [Compound D79, 3-((4-(1H-pyrazol-1-yl)phenyl)amino)-5-((4-hydroxybenzyl)amino)-1H-pyrazole-4-carboxamide] gave an inhibition at 1 µM not below 50%.

`N#Cc1c(Nc2cccc(Cl)c2)n[nH]c1NCc1ccc(OCCO)cc1` [Compound C21, 3-((3-chlorophenyl)amino)-5-((4-(2-hydroxyethoxy)benzyl)amino)-1H-pyrazole-4-carbonitrile] came in with an inhibition at 1 µM of 5 to 20%.

For `NC(=O)c1c(Nc2ccc(NC(=O)c3ccccc3OC(F)(F)F)cc2)n[nH]c1NCc1ccc(O)cc1` [Compound D147], the “Activity (inhibition of the RC kinase activity at 1 μM)” value is “A (at least 50% inhibition of the RC kinase activity at 1 μM)”.

`N#Cc1c(Nc2cccc(Cl)c2)n[nH]c1NCc1ccc(-n2cnc3ccccc32)cc1` [Compound C7] returned an inhibition at 1 µM of 5 to 20%.

Take `N#Cc1c(Nc2cccc(Cl)c2)n[nH]c1NCc1cccnc1Cl` [Compound C28, 3-((3-chlorophenyl)amino)-5-(((2-chloropyridin-3-yl)methyl)amino)-1H-pyrazole-4-carbonitrile]: the inhibition at 1 µM is not above 5%.

In turn, `N#Cc1c(Nc2cccc(Cl)c2)n[nH]c1NCc1c[nH]c2c(F)c(F)c(F)c(F)c12` [Compound C8] yielded an inhibition at 1 µM of 5 to 20%.

Consider `N#Cc1c(Nc2cccc(Cl)c2)n[nH]c1NCc1ccc(N2CCOCC2)nc1` [Compound C15], for which the inhibition at 1 µM was not above 5%.

On to `NC(=O)c1c(NC2CCCCC2)n[nH]c1NCc1ccc(O)cc1` [Compound D133, 3-(cyclohexylamino)-5-((4-hydroxybenzyl)amino)-1H-pyrazole-4-carboxamide], for which the inhibition at 1 µM lay in the range of 20 to 50%.

Compound `N#Cc1c(Nc2cccc(Cl)c2)n[nH]c1NCc1ccc(S(F)(F)(F)(F)F)cc1` [Compound C5, 3-((3-chlorophenyl)amino)-5-((4-pentafluorothiobenzyl)amino)-1H-pyrazole-4-carbonitrile] returned an inhibition at 1 µM of 5 to 20%.

The compound `NC(=O)c1c(Nc2cccc(Cl)c2)n[nH]c1NCc1ccc(O)nc1` [Compound D86] returned an inhibition at 1 µM not above 5%.

As for `NC(=O)c1c(Nc2cccc(Cl)c2)n[nH]c1NCc1ccc([N+](=O)[O-])cc1` [Compound D74, 3-((3-chlorophenyl)amino)-5-((4-nitrobenzyl)amino)-1H-pyrazole-4-carboxamide], the inhibition at 1 µM lay in the range of 5 to 20%.

With `N#Cc1c(Nc2cccc(Cl)c2)n[nH]c1NCc1c(O)cccc1Cl` [Compound C25], the inhibition at 1 µM lay within 20 to 50%.

Regarding `N#Cc1c(Nc2cccc(Cl)c2)n[nH]c1NCc1ccc(-c2ccccn2)s1` [Compound C16], the inhibition at 1 µM is not above 5%.

Regarding `N#Cc1c(Nc2cccc(Cl)c2)n[nH]c1NCc1ccc(OC(F)(F)F)c(F)c1` [Compound C10], the inhibition at 1 µM was not above 5%.

For `COc1ccc(C(=O)Nc2ccc(Nc3n[nH]c(NCc4ccc(O)cc4)c3C(N)=O)cc2)cc1OC` [Compound D129], the inhibition at 1 µM was not below 50%.

`COc1ccc(C(F)(F)F)cc1CNc1[nH]nc(Nc2cccc(Cl)c2)c1C#N` [Compound C14] had an inhibition at 1 µM not above 5%.

Regarding `COc1cccc(C(=O)Nc2ccc(Nc3n[nH]c(NCc4ccc(O)cc4)c3C(N)=O)cc2)c1` [Compound D145], the “Activity (inhibition of the RC kinase activity at 1 μM)” value is reported as “A (at least 50% inhibition of the RC kinase activity at 1 μM)”.

In turn, `NC(=O)c1c(Nc2cccc(Cl)c2)n[nH]c1NCc1c[nH]nc1-c1ccc(F)cc1` [Compound D166] showed an inhibition at 1 µM not above 5%.

In turn, `N#Cc1c(Nc2cccc(Cl)c2)n[nH]c1NCc1ccc(OC(F)F)c(O)c1` [Compound C17, 3-((3-chlorophenyl)amino)-5-((4-(difluoromethoxy)-3-hydroxybenzyl)amino)-1H-pyrazole-4-carbonitrile] registered an inhibition at 1 µM not above 5%.

`Cc1cc(CNc2[nH]nc(Nc3cccc(Cl)c3)c2C(N)=O)cc(C)c1O` [Compound D8] registered an inhibition at 1 µM of 20 to 50%.

`NC(=O)c1c(Nc2ccc(-c3cc[nH]n3)cc2)n[nH]c1NCc1ccc(O)cc1` [Compound D84]: the inhibition at 1 µM is not below 50%.

Consider `Cc1cc(C)cc(CNc2[nH]nc(Nc3cccc(Cl)c3)c2C(N)=O)c1` [Compound D78], for which the inhibition at 1 µM was in the range of 5 to 20%.

The compound `CC1CCN(C2CCN(c3n[nH]c(NCc4ccc(O)cc4)c3C(N)=O)CC2)CC1` [Compound D88] yielded an inhibition at 1 µM of 20 to 50%.

Consider `NC(=O)c1c(Nc2ccc(Cc3ccccc3)cc2)n[nH]c1NCc1ccc(O)cc1` [Compound D83, 3-((4-benzylphenyl)amino)-5-((4-hydroxybenzyl)amino)-1H-pyrazole-4-carboxamide], for which the inhibition at 1 µM was not below 50%.

In the case of `Cc1cc(F)ccc1CNc1[nH]nc(Nc2cccc(Cl)c2)c1C#N` [Compound C29, 3-((3-chlorophenyl)amino)-5-((4-fluoro-2-methylbenzyl)amino)-1H-pyrazole-4-carbonitrile], the inhibition at 1 µM lay in the range of 5 to 20%.

The compound `N#Cc1c(Nc2cccc(Cl)c2)n[nH]c1NCc1ccc(-n2cncn2)cc1` [Compound C20] displayed an inhibition at 1 µM of 5 to 20%.

The compound `COc1ncc(CNc2[nH]nc(Nc3cccc(Cl)c3)c2C(N)=O)cn1` [Compound D87] came in with an inhibition at 1 µM not above 5%.
